Reference: patent publication US12516049B2, “Sulfonylurea ring substituted monocyclic β-lactam antibiotics” (priority 2019, dated 2026)
Values after ≈ are worked out from the molar mass of the structure shown. Each block holds one molecule with its values, some of them ahead of it.

Key:
Format in all cases: cell-based
[1] = system: Escherichia coli ATCC 25922; assay: MIC, micro-liquid dilution (CLSI); conditions: ATCC25922, E. coli ATCC 25922, 20-24 h, 37° C.
Procedure: (§1) Three strains of Klebsiella pneumonia, ATCC BAA-205 (TEM-1/SHV-1/SHV-12), ATCC BAA-1705 (KPC-2), ATCC BAA-2470 (NDM-1), Enterobacter cloacae ATCC BAA-1143 (AmpC), two strains of Escherichia coli ATCC BAA-2523 (OXA-48), ATCC 25922 were used to determine the minimum inhibitory concentration (MIC) of each of the compounds by micro-liquid dilution method according to the Institute of Clinical and Laboratory Standard (CLSI) requirements. […]. The plate was placed upside down at 37° C. and the MIC value was read after 20-24 h of incubation, and the lowest drug concentration that inhibited the growth of bacteria was set as MIC. Colony-Forming Units (CFU) refer to the total number of bacterial colonies per unit volume.

[2] = system: Enterobacter cloacae ATCC BAA-1143 (AmpC); assay: MIC, micro-liquid dilution (CLSI); conditions: ATCCBAA1143, E. cloacae ATCC BAA-1143, Class C (AmpC), 20-24 h, 37° C.
Procedure: as §1

[3] = system: Escherichia coli ATCC BAA-2523 (OXA-48); assay: MIC, micro-liquid dilution (CLSI); conditions: ATCCBAA2523, E. coli ATCC BAA-2523, Class D (OXA-48), 20-24 h, 37° C., read-out: MIC
Procedure: as §1

[4] = system: Klebsiella pneumonia ATCC BAA-2470 (NDM-1); assay: MIC, micro-liquid dilution (CLSI); conditions: Klebsiella pneumoniae, ATCCBAA2470; K. pneumonia ATCC BAA-2470, Class B (NDM-1); 20-24 h, 37° C.
Procedure: as §1

[5] = system: Klebsiella pneumonia ATCC BAA-205 (TEM-1/SHV-1/SHV-12); assay: MIC, micro-liquid dilution (CLSI); conditions: Klebsiella pneumoniae, ATCCBAA205; K. pneumonia ATCC BAA-205, Class A (TEM-1/SHV-1/SHV-12); 20-24 h, 37° C.
Procedure: as §1

[6] = system: Klebsiella pneumonia ATCC BAA-1705 (KPC-2); assay: MIC, micro-liquid dilution (CLSI); conditions: Klebsiella pneumoniae, ATCCBAA1705; K. pneumonia ATCC BAA-1705, Class A (KPC-2); 20-24 h, 37° C.
Procedure: as §1

[7] = system: clinically isolated carbapenem-resistant enterobacteriaceae; conditions: single drug; panel of 26 strains of Table 2
Procedure: (§2) The minimum inhibitory concentration (MIC) of the compound and combination with β-lactamase (MBLs) inhibitors against clinically isolated carbapenem-resistant enterobacteriaceae was determined by the two-fold agar dilution method to determine the activity of the compound to be tested against strains producing MBLs. […] The mother liquor was diluted to the concentration to be tested by double dilution method, an inoculum liquid was prepared by direct bacterial suspension method, 1 mL of the prepared bacteria solution was withdrawn and putted into the inoculation tube, and a positioning needle and an inoculation needle were installed. A bacterial multi-point inoculator was started for inoculation. After the bacterial solution was absorbed by the agar, the plate was placed upside down in an incubator at 37° C. for 16-20 hours, and the results were observed. The average of three tests was taken.

K.p CRE16 = assay: MIC, two-fold agar dilution, clinical isolate; conditions: single drug, average of three tests
Procedure: (§3) The minimum inhibitory concentration (MIC) of the compound and combination with β-lactamase (MBLs) inhibitors against clinically isolated carbapenem-resistant enterobacteriaceae was determined by the two-fold agar dilution method to determine the activity of the compound to be tested against strains producing MBLs. Antibiotics and enzyme inhibitors were weighed separately and dissolved in sterile ultrapure water or dimethyl sulfoxide to prepare mother liquor, MHA medium was prepared, pH was adjusted to 7.2-7.4, and it was sterilized at 121° C. for 15 minutes and placed in a 55° C. water bath for heat preservation. The mother liquor was diluted to the concentration to be tested by double dilution method, an inoculum liquid was prepared by direct bacterial suspension method, 1 mL of the prepared bacteria solution was withdrawn and putted into the inoculation tube, and a positioning needle and an inoculation needle were installed. A bacterial multi-point inoculator was started for inoculation. After the bacterial solution was absorbed by the agar, the plate was placed upside down in an incubator at 37° C. for 16-20 hours, and the results were observed. The average of three tests was taken.

E.coli 020033 = assay: MIC, two-fold agar dilution, clinical isolate; conditions: Escherichia coli, single drug, average of three tests
Procedure: as §3

K.p C904 = assay: MIC, two-fold agar dilution, clinical isolate; conditions: K.p C904; single drug; average of three tests; read-out: MIC
Procedure: as §3

E.coli 020028 = assay: MIC, two-fold agar dilution, clinical isolate; conditions: Escherichia coli, single drug, average of three tests
Procedure: as §3

[8] = system: Morganella morganii C1274; assay: MIC, two-fold agar dilution, clinical isolate; conditions: Morganella morganii C1274; single drug; average of three tests; read-out: MIC
Procedure: as §3

K.p CRE11 = assay: MIC, two-fold agar dilution, clinical isolate; conditions: K.p CRE11; single drug; average of three tests; read-out: MIC
Procedure: as §3

K.p HX77 = assay: MIC, two-fold agar dilution, clinical isolate; conditions: single drug, average of three tests
Procedure: as §3

K.p CRE12 = assay: MIC, two-fold agar dilution, clinical isolate; conditions: single drug, average of three tests
Procedure: as §3

K.p HX37 = assay: MIC, two-fold agar dilution, clinical isolate; conditions: K.p HX37; single drug; average of three tests; read-out: MIC
Procedure: as §3

E.coli CRE28 = assay: MIC, two-fold agar dilution, clinical isolate; conditions: Escherichia coli; E.coli CRE28; single drug; average of three tests; read-out: MIC
Procedure: as §3

E.coli CRE21 = assay: MIC, two-fold agar dilution, clinical isolate; conditions: Escherichia coli; E.coli CRE21; single drug; average of three tests; read-out: MIC
Procedure: as §3

K.p BAA-2470 = assay: MIC, two-fold agar dilution, clinical isolate; conditions: K.p BAA-2470; single drug; average of three tests; read-out: MIC
Procedure: as §3

K.p 115004 = assay: MIC, two-fold agar dilution, clinical isolate; conditions: K.p 115004; single drug; average of three tests; read-out: MIC
Procedure: as §3

K.p 11544 = assay: MIC, two-fold agar dilution, clinical isolate; conditions: K.p 11544; single drug; average of three tests; read-out: MIC
Procedure: as §3

E.coli 020031 = assay: MIC, two-fold agar dilution, clinical isolate; conditions: Escherichia coli, single drug, average of three tests
Procedure: as §3

K.p 13249 = assay: MIC, two-fold agar dilution, clinical isolate; conditions: K.p 13249; single drug; average of three tests; read-out: MIC
Procedure: as §3

E.coli CRE18 = assay: MIC, two-fold agar dilution, clinical isolate; conditions: Escherichia coli; E.coli CRE18; single drug; average of three tests; read-out: MIC
Procedure: as §3

E.coli C1569 = assay: MIC, two-fold agar dilution, clinical isolate; conditions: Escherichia coli, single drug, average of three tests
Procedure: as §3

E.coli 115103 = assay: MIC, two-fold agar dilution, clinical isolate; conditions: Escherichia coli; E.coli 115103; single drug; average of three tests; read-out: MIC
Procedure: as §3

E.coli BAA-2452 = assay: MIC, two-fold agar dilution, clinical isolate; conditions: Escherichia coli, BAA2452; E.coli BAA-2452; single drug; average of three tests; read-out: MIC
Procedure: as §3

K.p 6777 = assay: MIC, two-fold agar dilution, clinical isolate; conditions: K.p 6777; single drug; average of three tests; read-out: MIC
Procedure: as §3

K.p 090339 = assay: MIC, two-fold agar dilution, clinical isolate; conditions: K.p 090339; single drug; average of three tests; read-out: MIC
Procedure: as §3

E.coli CRE23 = assay: MIC, two-fold agar dilution, clinical isolate; conditions: Escherichia coli; E.coli CRE23; single drug; average of three tests; read-out: MIC
Procedure: as §3

E.coli 115101 = assay: MIC, two-fold agar dilution, clinical isolate; conditions: Escherichia coli; E.coli 115101; single drug; average of three tests; read-out: MIC
Procedure: as §2

E.coli 115105 = assay: MIC, two-fold agar dilution, clinical isolate; conditions: Escherichia coli, single drug, average of three tests
Procedure: as §2

K.p HX30 = assay: MIC, two-fold agar dilution, clinical isolate; conditions: K.p HX30; single drug; average of three tests; read-out: MIC
Procedure: as §2

MIC [1]: 0.5 µg/mL (≈ 0.8 µM)
MIC [2]: 1 µg/mL (≈ 1.6 µM)
MIC [3]: 0.25 µg/mL (≈ 0.4 µM)
MIC [4]: 0.5 µg/mL (≈ 0.8 µM)
MIC [5]: 1 µg/mL (≈ 1.6 µM)
MIC [6]: 1 µg/mL (≈ 1.6 µM)
SMILES: N=C(N)NC[C@@H]1CN(C[C@@H]2[C@H](NC(=O)/C(=N\OC3(C(=O)O)CC3)c3csc(N)n3)C(=O)N2S(=O)(=O)O)S(=O)(=O)N1 [Compound 5]

SMILES: Nc1nc(/C(=N/OC2(C(=O)O)CC2)C(=O)N[C@@H]2C(=O)N(S(=O)(=O)O)[C@@H]2CN2CCOC2=O)cs1 [LYS 228]
MIC50 [7]: 0.5 µg/mL
MIC90 [7]: 4 µg/mL
MIC (K.p CRE16): 0.06 µg/mL
MIC (E.coli 020033): 8 µg/mL
MIC (K.p C904): 0.125 µg/mL
MIC (E.coli 020028): 0.125 µg/mL
MIC [8]: 0.25 µg/mL
MIC (K.p CRE11): 0.125 µg/mL
MIC (K.p HX77): 0.03 µg/mL
MIC (K.p CRE12): 0.125 µg/mL
MIC (K.p HX37): 0.5 µg/mL
MIC (E.coli CRE28): 4 µg/mL
MIC (E.coli CRE21): 4 µg/mL
MIC (K.p BAA-2470): 0.25 µg/mL
MIC (K.p 115004): 0.25 µg/mL
MIC (K.p 11544): 0.125 µg/mL
MIC (E.coli 020031): 4 µg/mL
MIC (K.p 13249): 0.125 µg/mL
MIC (E.coli CRE18): 4 µg/mL
MIC (E.coli C1569): 4 µg/mL
MIC (E.coli 115103): 8 µg/mL
MIC (E.coli BAA-2452): 0.5 µg/mL
MIC (K.p 6777): 1 µg/mL
MIC (K.p 090339): 0.25 µg/mL
MIC (E.coli CRE23): 2 µg/mL
MIC (E.coli 115101): 4 µg/mL
MIC (E.coli 115105): 4 µg/mL
MIC (K.p HX30): 2 µg/mL

MIC [1]: 4 µg/mL (≈ 6.4 µM)
MIC [2]: 1 µg/mL (≈ 1.6 µM)
MIC [3]: 0.25 µg/mL (≈ 0.4 µM)
MIC [4]: 1 µg/mL (≈ 1.6 µM)
MIC [5]: 2 µg/mL (≈ 3.2 µM)
MIC [6]: 8 µg/mL (≈ 12.8 µM)
SMILES: CC(=O)NC[C@@H]1CN(C[C@@H]2[C@H](NC(=O)/C(=N\OC3(C(=O)O)CC3)c3csc(N)n3)C(=O)N2S(=O)(=O)O)S(=O)(=O)N1 [Compound 6]
